Tests used:
[1] = target: T1, TMEM16A (Mus musculus, UniProt Q8BHY3); assay: Whole-cell patch-clamp of HEK293T cells expressing TMEM16A; format: cell-based
T1 construct: expressed in transfected cells; host or cells: HEK293T
T1 sequence (Q8BHY3 1-960): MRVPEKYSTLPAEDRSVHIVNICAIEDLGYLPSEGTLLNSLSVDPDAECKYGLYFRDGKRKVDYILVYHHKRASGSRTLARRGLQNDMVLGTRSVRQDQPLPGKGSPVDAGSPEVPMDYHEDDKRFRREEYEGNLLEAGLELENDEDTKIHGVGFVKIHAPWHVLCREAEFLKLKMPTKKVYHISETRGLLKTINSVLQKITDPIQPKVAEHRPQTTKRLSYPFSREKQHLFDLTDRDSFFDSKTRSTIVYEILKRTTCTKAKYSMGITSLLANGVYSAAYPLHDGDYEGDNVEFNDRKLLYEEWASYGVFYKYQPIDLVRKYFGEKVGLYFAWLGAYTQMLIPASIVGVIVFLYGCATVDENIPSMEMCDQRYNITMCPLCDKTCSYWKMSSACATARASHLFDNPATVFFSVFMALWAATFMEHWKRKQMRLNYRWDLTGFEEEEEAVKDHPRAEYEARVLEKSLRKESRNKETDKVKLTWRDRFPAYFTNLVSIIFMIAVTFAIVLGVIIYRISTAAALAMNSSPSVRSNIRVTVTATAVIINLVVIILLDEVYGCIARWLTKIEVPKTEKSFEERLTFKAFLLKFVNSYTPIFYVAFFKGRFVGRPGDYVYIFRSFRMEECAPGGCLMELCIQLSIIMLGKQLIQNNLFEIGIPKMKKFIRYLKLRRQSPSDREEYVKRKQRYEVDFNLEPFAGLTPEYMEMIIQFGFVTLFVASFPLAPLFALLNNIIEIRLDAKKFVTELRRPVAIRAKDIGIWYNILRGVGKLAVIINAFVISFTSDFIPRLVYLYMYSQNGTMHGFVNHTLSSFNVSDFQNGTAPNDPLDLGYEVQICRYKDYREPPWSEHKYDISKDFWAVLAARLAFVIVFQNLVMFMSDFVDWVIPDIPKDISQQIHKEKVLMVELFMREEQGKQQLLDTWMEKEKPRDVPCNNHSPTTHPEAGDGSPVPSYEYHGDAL
Procedure: mTMEM16A (kindly provided by Dr Lily Yeh Jan) and hKCNE1 cDNA were subcloned in pIRES2eGFP, pXOOM, pcDNA3.1, pCDNA3.1-GFP and pCMV-HA vectors. Truncations and mutations on KCNE1 were generated by PCR. For SiMPull experiments, HA-tags were fused to the N-terminus of sequences, whereas GFP-tags were fused to C-terminal part. HEK293T and PCT cells were transiently co-transfected using Lipofectamine 2000 or the calcium phosphate method with a total amount of 1 and 3.5 μg of DNA, respectively, and seeded on 18 mm diameter coverslips. HEK cells were maintained in DMEM with 5% FBS on poly-L-lysine-coated glass coverslips in 12 well plates. PCT cells from wild type and knock-out mice were microdissected as described previously and maintained in F12 (Gibco) on collagen-coated glass coverslips.
HEK293T and PCT cell electrophysiology was performed 24-48 h after transfection. For whole-cell patch-clamp experiments cells were recorded in a bath solution containing (in mM) 150 NaCl, 5 KCl, 2 CaCl2 and 10 HEPES, pH 7.4 and 0.05% BSA. The glass pipettes (2-5 MΩ of resistance) were filled with (in mM) 5 NaCl, 135 CsCl, 2 MgCl2, 5 EGTA, 10 HEPES, pH 7.3. Cells were recorded either after incubation of 30 min with the peptide or during perfusion with the peptide. Total calcium concentration was calculated with Maxchelator (maxchelator.standford.edu) for a temperature of 20° C. HEK293T and PCT cells were recorded at room temperature in voltage-clamp mode using an Axopatch 200A (Molecular Devices) amplifier. Signals were filtered at 10 kHz and digitalized at 20 kHz. Whole-cell currents were elicited by voltage-ramps (from −100 to +100 mV, 1 s) and I-V stimulation pulses (from −100 to +100 mV in 20 mV increments, 1 s each pulse), holding the cells at −80 mV. Current densities were measured at +100 mV. Cell recordings, data acquisition and analysis of electrophysiology experiments were performed using pClamp software (Molecular Devices).

[2] = Acute effect on tear fluid secretion (tearing rate, phenol red thread) in naive rats; format: in vivo, Sprague-Dawley rats
Procedure: Sprague-Dawley rats (males, around 200 g) were purchased from Charles River and adapted one week before processing the experiment. Two-three rats per cage were housed in a controlled environment of 12 hours intervals of light/dark cycles and free access to food and water. Animal experiments were approved by the Animal Care and Use Committee of the University of Barcelona (CEEA) and the […] de Territori i Sostenibilitat of Generalitat de Catalunya, Catalonia, Spain (319/19; 10935) and followed the ethical guidelines of the International Association for the Study of Pain. […] (also named Nter 13 peptide or […] NO: 2)) and scramble ([…] NO: 7)) peptides were purchased from GenScript Biotech (Leiden, Netherlands) and provided by CNRS. Both peptides were dissolved in Phosphate Buffered Saline (PBS) at 10 mM and used for topical ocular application (5 ul per eye). Tear fluid secretion (tearing rate) was measured using phenol red threads (Zone-Quick, Menicon, Nagoya, Japan) placed on the lower eyelid for 30 s without topical anesthesia (Trost, 2007; Acosta 2013). Tearing rate was determined with an accuracy of ±0.5 mm by measurement of the length of the red portion of the thread. After habituation of the animals, basal tearing rate was measured in both eyes before any topical application of peptides. Then, animals were divided in different groups and a solution containing vehicle (PBS), amiloride (1 mM), peptide N13 or peptide scramble was topically applied to the ocular surface (5 μl) and tearing rate was measured at 1, 3, 6, 12 and 24 h. Tearing rate measurements were done blind to the treatment received by the animals. Data are presented as mean±standard error of the mean (SEM). Statistical differences between different sets of data were assessed by performing repeated measured One-way ANOVA plus Bonferroni's post-tests (each data point in an experimental group vs. basal values) or repeated measured Two-way ANOVA plus Bonferroni's post-tests (each data point in […] group vs. Scramble or Vehicle group; or point in […] or amiloride groups vs. Vehicle group) using Prism 9 (GraphPad Software, San Diego, CA). The significance level was set at p<0.05 in all statistical analyses.

## LARRSPRSSDGKL (SEQ ID NO: 2) (amino acid residues between positions 30 to 42 of the human KCNE1 protein sequence) [N13ter]
[1]; 100 μM peptide, HEK293T cells expressing TMEM16A alone
  current density elicited by peptide at +100 mV: 15.48±3.25 pA/pF
[1]; 100 μM, HEK293T expressing TMEM16A and Xenopus oocytes (FIG. 9)
  potency on TMEM16A compared with rat N13 peptide: more potent
[1]; HEK293T cells expressing TMEM16A alone, 100 μM for Nter13, S38G and rat peptides
  effect of peptide application on TMEM16A current: induces TMEM16A current properties
[2]; 10 mM topical, 5 μl per eye, n=20 eyes, basal 7.65±0.49 mm (N13ter)
  tearing rate at 6 h: 9.65±0.57 mm
[2]; 10 mM topical, 5 μl per eye, n=20 eyes, basal 7.65±0.49 mm (N13ter), 8.10±0.54 mm (Scramble)
  tearing rate at 12 h: 8.85±0.73 mm
[2]; N13ter 10 mM topical, vehicle/amiloride study, n=12 eyes, basal 4.53±0.43
  tearing rate at 12 h: 6.66±0.64 mm
[2]; N13ter 10 mM vs scramble peptide
  time after application at which the enhancing effect becomes significant: 6 to 12 h
[2]; N13ter 10 mM, amiloride 1 mM, vehicle PBS
  effect on tearing rate compared with Vehicle: significant increase in tearing rate
[2]; N13ter vs Scramble study, both 10 mM topical
  effect on tearing rate: small but significant increase in tearing rate
[2]; all N13ter 10 mM studies pooled, n=32 eyes, normalized to basal
  effect on tearing rate vs vehicle, pooled data: statistically significant effect at 1, 3, 6, 12 and 24 h, obtaining the maximal increase at 6 and 12 h

— US12702692B2, “Therapeutic use of calcium-activated chloride channel peptide activator” (CENTRE NATIONAL DE LA RECHERCHE SCIENTIFIQUE, priority 2020, dated 2026)
